ChEMBL document CHEMBL5233292, “Biscroyunoid A, an Anti-Hepatic Fibrotic 19-nor-Clerodane Diterpenoid Dimer with a C-16-C-12' Linkage from Croton yunnanensis” (J Nat Prod, 2023)
Calls of active or inactive are those of the source. No cut-off for these calls is given here.

Tests used:
[1] = Cytotoxicity against human LX2 cells at 20 to 40 uM; type: toxicity, cell-based; conditions: lx-2, 40 µM, dose 20-40 µM
LX-2 [2] = assay: Anti-hepatic fibrosis activity in human LX2 cells assessed as inhibition of TGFbeta1-induced alpha-SMA expression at 20 to 40 uM measured after 48 hrs by western blot analysis; type: functional, cell-based; conditions: dose 20-40 µM
LX-2 [3] = assay: Anti-hepatic fibrosis activity in human LX2 cells assessed as inhibition of TGFbeta1-induced fibronectin expression measured after 48 hrs by immunofluorescence analysis; type: functional, cell-based; conditions: dose 20-40 µM
LX2 [4] = assay: Inhibition of TGF-beta1/Smad2/3 signaling in TGF-beta1-stimulated human LX-2 cells assessed as reduction in Smad3 phosphorylation at 20 to 40 uM by western blot analysis; type: cell-based; conditions: dose 20-40 µM
LX2 [5] = assay: Inhibition of TGF-beta1/Smad2/3 signaling in TGF-beta1-stimulated human LX-2 cells assessed as reduction in Smad2/3 translocation from cytoplasm to nucleus at 40 uM by DAPI staining based fluorescence analysis; type: cell-based
LX2 [6] = assay: Inhibition of TGF-beta1/Smad2/3 signaling in TGF-beta1-stimulated human LX-2 cells assessed as reduction in Smad2 phosphorylation at 20 to 40 uM by western blot analysis; type: cell-based; conditions: dose 20-40 µM
LX-2 [7] = assay: Anti-hepatic fibrosis activity in human LX2 cells assessed as inhibition of TGFbeta1-induced collagen I expression at 20 to 40 uM measured after 48 hrs by western blot analysis; type: functional, cell-based; conditions: dose 20-40 µM

In the case of `COC(=O)C1=CC[C@H]2[C@@]3(CC[C@@H](C)[C@]24C[C@@H](c2occc2[C@H]2C[C@@]56[C@H](O2)O[C@]2(CC[C@H]5C)C(C(=O)OC)=CCC[C@H]62)c2ccoc2[C@@H]4O3)C1`, the Activity [1] is reported as “Non-Toxic”, the Activity (LX-2 [2]) is reported as “Active” and the Activity (LX-2 [3]) is reported as “Dose-Dependent Effect”. For the same molecule, the inhibition (LX2 [4]) was “Active”, the inhibition (LX2 [5]) was “Active” and the inhibition (LX2 [6]) was “Active”. For the same molecule, the Activity (LX-2 [7]) was “Active”.
